We go through four molecules from patent publication US20260041620A1, “NOVEL AMINO ACID BASED SALTS, COMPOSITIONS AND METHODS FOR TREATING SKIN AND IMPROVING SKIN REJUVENATION AND LONGEVITY” (Sytheon Ltd, priority 2023, published 2026).

The target in test [1] is T1, MAGL (Homo sapiens, UniProt Q99685).
T1 construct: purchased Cayman 10007812
T1 sequence (Q99685 1-303): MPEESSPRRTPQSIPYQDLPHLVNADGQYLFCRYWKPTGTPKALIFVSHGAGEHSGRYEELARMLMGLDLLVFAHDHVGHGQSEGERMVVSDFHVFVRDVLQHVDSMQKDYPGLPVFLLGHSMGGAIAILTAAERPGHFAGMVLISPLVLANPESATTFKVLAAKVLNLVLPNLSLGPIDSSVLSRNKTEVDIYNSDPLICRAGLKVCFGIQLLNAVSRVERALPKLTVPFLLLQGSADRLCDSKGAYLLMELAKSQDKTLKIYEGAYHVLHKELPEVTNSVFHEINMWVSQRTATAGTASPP
In words: MAGL inhibitory assay. Type of test: biochemical. On the procedure: Each study was performed in duplicate and the results averaged.
The final concentration in each well was 10 μl of sample, 5.6 μM MAGL (Cayman Catalog #10007812) and 23.6 μM 2-Arachidonoyl Glycerol (Cayman catalog #62160).

Test [2] addresses HDAC 4 (Homo sapiens, UniProt P56524). The test can be described thus: HDAC 4 fluorogenic assay kit.
In test [3] the test system is Telomerase. In words: Telomerase Activity Quantification qPCR Assay in human dermal fibroblasts. Format: cell-based. The following applies: 300 nM, three days. The protocol: Normal neonatal human dermal fibroblasts (HDF cat, #2310; ScienCell, Oceanside, CA) were grown to confluence in the 6 well plate format and incubated with the test substances identified in Table 3 for three days. Following incubation, the cells were lysed and telomerase activity was determined with Telomerase Activity Quantification qPCR Assay Kit from ScienCell (cat. #8928). Forget-Me-Not™ EvaGreen® qPCR Master Mix (Low ROX) (Biotium, Fremont, CA) was used for real-time quantitative PCR on C1000 Touch System with CFX384™ optical module Detection. For quantifying the level of activity, the Comparative Cq method was used, following the equation: […]
where TPS is telomere primer set, which recognizes and amplifies newly synthesized telomere sequences and Cq(TPS) is the Quantification Cycle Value obtained from the qPCR software. The relative telomerase activity difference between the experimental condition and control is expressed as 2^−ΔCq Telomerase activity was considered different if the level of expression was reasonably high (Cq≤33 cycles to detect), the difference vs. control was >2 fold and the p value, assessed with two-tailed Student test, was <0.05.
On the technique in general: Real-time PCR tracks product formation cycle by cycle.

The test system of test [4] is Type IV Collagen. In words: Type IV Collagen Assay (ELISA, fibroblast culture medium). The following applies: 10 μg/ml, 48 hours; untreated 7.76 ± 0.92. Format: cell-based, human. On the procedure: (§1) In the study, human neonatal fibroblasts were seeded into the individual wells of a 48-well plate in 0.25 ml of Fibroblasts Growth Media (FGM) and incubated overnight at 37±2° C. and a 5±1% CO2 atmosphere. On the following day the media was removed via aspiration to eliminate non-adherent cells and replaced with 0.5 ml of fresh FGM. The cells were grown until confluent, with a media change every 48 to 72 hours. Upon reaching confluency the cells were treated for 24 hours with Dulbecco's Modified Eagle's medium (DMED) supplemented with 1.5% Fetal Bovine Serum (FBS) to wash out any effects from the growth factors included in the normal culture media. After this 24-hour wash out period the cells were treated with the test materials at the specified concentrations dissolved in FGM with 1.5% FBS. Sodium ascorbate (10 ug/ml) was used as a positive control. Untreated cells (negative controls) only received DMEM with […], The cells were incubated for 48 hours and at the end of the incubation period, cell culture medium was collected and either stored frozen (−75 C) or assayed immediately. Materials were tested in triplicate.
A series of type IV collagen peptide standards was prepared ranging from 0 ng/ml to 640 ng/ml. 100 μl of each standard or of each of the collected tissue culture media were added to the wells of type IV collagen ELISA plates. The plates were then incubated at 37° C. for 1 hour. After incubation, the ELISA plates were then washed twice with wash buffer, followed by the addition of 100 μl of detection antibody solution. The ELISA plates were then incubated for 1 hour at 37° C. Following incubation, the ELISA plates were washed with wash solution followed by the addition of 100 μl HEP conjugate solution and incubated at 37° C. for 30 minutes. Following the latter incubation, the ELISA plates were again washed and 100 μl of the substrate solution was added to each well and the well plates incubated for 10-30 minutes at room temperature to allow the color generation reaction to occur. At the end of the color generation reaction 100 μl of stop solution (1 N sulfuric acid) was added to each well and the plates read at 460 nm using a plate reader.
(§2) To quantify the amount of each substance present, a standard curve was generated using known concentrations of each substance. A regression analysis was performed to establish the line that best fit those data points. Absorbance values for the test materials and untreated samples were used to estimate the amount of each substance present in each sample. Treatment means were compared using ANOVA, with an […] per treatment. Statistical significance was set at p≤0.05.
(In an ELISA, binding on a coated surface is turned into a signal by an enzyme label.)

Test [5] has as its system Type I Collagen. The test can be described thus: Type I Collagen Assay (ELISA, fibroblast culture medium). Format: cell-based, human. The following applies: 10 μg/ml, 48 hours; untreated 1255 ± 83. On the procedure: as §1
A series of type I collagen peptide standards was prepared ranging from 0 ng/ml to 640 ng/ml. An ELISA microplate was prepared by removing any unneeded strips from the plate frame followed by the addition of 100 μl of peroxidase labelled anti-procollagen type I-C peptide antibody to each well used in the assay. A 20 μl sample of each of the collected tissue culture media or a standard was then added to appropriate wells and the microplate covered and allowed to incubate for 3±0.25 hours at 37 C. Following incubation, the wells were aspirated and washed three times with 400 μl of wash buffer. After the last wash was remove 100 μl of peroxidase substrate solution (hydrogen peroxide+tetramethylbenzidine as a chromogen) was added to each well and the plate incubated for 15±4 minutes at room temperature. Following this incubation, 100 μl of stop solution (1 N sulfuric acid) was added to each well and the plate read using a microplate reader at 450 nm.
as §2

Chain of HDAC 4 (P56524 whole entry): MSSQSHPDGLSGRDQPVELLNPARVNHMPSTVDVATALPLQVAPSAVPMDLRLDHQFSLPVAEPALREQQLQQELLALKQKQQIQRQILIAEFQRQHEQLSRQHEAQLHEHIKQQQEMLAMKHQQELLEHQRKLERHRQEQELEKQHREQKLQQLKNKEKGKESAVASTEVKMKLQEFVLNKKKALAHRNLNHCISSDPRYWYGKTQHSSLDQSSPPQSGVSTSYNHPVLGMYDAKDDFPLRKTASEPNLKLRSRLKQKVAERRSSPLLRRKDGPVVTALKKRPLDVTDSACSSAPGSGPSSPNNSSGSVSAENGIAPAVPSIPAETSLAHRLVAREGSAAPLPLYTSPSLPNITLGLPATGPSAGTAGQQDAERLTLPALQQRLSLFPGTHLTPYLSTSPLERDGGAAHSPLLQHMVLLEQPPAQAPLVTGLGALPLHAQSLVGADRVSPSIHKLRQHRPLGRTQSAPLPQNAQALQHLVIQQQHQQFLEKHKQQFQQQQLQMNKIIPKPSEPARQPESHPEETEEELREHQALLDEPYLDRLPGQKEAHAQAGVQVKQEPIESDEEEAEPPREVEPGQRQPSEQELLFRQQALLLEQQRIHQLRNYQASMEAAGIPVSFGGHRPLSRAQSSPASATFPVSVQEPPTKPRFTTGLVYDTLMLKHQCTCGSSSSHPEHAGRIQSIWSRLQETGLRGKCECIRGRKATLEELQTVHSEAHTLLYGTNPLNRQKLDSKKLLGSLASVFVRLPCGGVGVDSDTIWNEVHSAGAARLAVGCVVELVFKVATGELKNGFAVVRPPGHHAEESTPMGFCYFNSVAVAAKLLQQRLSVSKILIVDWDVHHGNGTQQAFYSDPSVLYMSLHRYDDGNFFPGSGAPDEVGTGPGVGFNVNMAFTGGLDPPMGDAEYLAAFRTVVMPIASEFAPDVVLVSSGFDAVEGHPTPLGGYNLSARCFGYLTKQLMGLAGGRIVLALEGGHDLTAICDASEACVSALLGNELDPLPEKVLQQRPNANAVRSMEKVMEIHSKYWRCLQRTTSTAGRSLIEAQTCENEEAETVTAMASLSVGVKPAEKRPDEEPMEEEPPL

On to `C=C(C)[C@@H]1CCC(C)=C[C@H]1c1c(O)cc(CCCCC)cc1O` [CBD, Cannabidiol, reference compound], for which, in test [1], the “MAGL IC50” value is reported as 4,130^2 ^ μg/ml.

As for `CCCC(=O)[O-].CCCC(=O)[O-].[Ca+2]` [Ca n-butyrate, reference compound], the “HDAC 4 activity, % of water-treated controls” value was 104% in test [2] (25 ug/ml), 102% in test [2] (50 ug/ml) and 109% in test [2] (100 ug/ml).

On to `CC(/C=C/C(=O)NO)=C\[C@@H](C)C(=O)c1ccc(N(C)C)cc1` [Trichostatin-A], for which, in test [3], the “Average Cq(TPS)” value came out at 32.3, the “Telomerase Activity (FC vs. water)” value is 2.8 FC and the ΔCq sample-water stood at 1.5.

`O=C1O[C@H]([C@@H](O)CO)C([O-])=C1O.[Na+]` [Na ascorbate, Sodium ascorbate]: the “Type IV Collagen C-Peptide” value in test [4] is 67.70 ± 5.03 ng/mL. Further, the “Type I Collagen C-Peptide” value in test [5] stood at 4018 ± 196 ng/mL.
